Experiment [1] concerns the target T1, human NK1R (Homo sapiens, UniProt P25103).
T1 construct: expressed in transfected cells
In words: Binding assay of human NK1R expressed in COS or CHO cells, displacement of 125I-substance P (Table 1, hNK1). To be noted: human NK1 receptor, 125I-substance P ligand; read-out: hNK1 (IC50 nM). Here is the method: (§1) A. Receptor Expression in COS
(§2) To express the cloned human neurokinin-1 receptor (NK 1R) transiently in COS, the cDNA for the human NK 1R was cloned into the expression vector pCDM9 which was derived from pCDM 8 (INVITROGEN) by inserting the ampicillin resistance gene (nucleotide 1973 to 2964 from BLUESCRIPT SK+) into the Sac II site. Transfection of 20 μg of the plasmid DNA into 10 million COS cells was achieved by electroporation in 800 μl of transfection buffer (135 mM NaCl, 1.2 mM CaCl2, 1.2 mM MgCl2, 2.4 mM K2 HPO4, 0.6 mM KH2 PO4, 10 mM glucose, 10 mM HEPES pH 7.4) at 260 V and 950 uF using the IBI GENEZAPPER (IBI, New Haven, Conn.). The cells were incubated in 10% fetal calf serum, 2 mM glutamine, 100 U/ml penicillin-streptomycin, and 90% DMEM media (GIBCO, Grand Island, N.Y.) in 5% CO2 at 37° C. for three days before the binding assay. Similar methods were used to express the NK2 receptor.
(§3) B. Stable Expression in CHO
(§4) To establish a stable cell line expressing the cloned human NK1R, the cDNA was subcloned into the vector pRcCMV (INVITROGEN). Transfection of 20 μg of the plasmid DNA into CHO cells was achieved by electroporation in 800 μl of transfection buffer suplemented with 0.625 mg/ml Herring sperm DNA at 300 V and 950 uF using the IBI GENEZAPPER (IBI). The transfected cells were incubated in CHO media (10% fetal calf serum, 100 U/ml pennicilin-streptomycin, 2 mM glutamine, 1/500 hypoxanthine-thymidine(ATCC), 90% IMDM media (JRH BIOSCIENCES, Lenexa, Kans.), 0.7 mg/ml G418 (GIBCO)) in 5% CO2 at 37° C. until colonies were visible. Each colony was separated and propagated. The cell clone with the highest number of human NK1R was selected for subsequent applications such as drug screening. Similar methods were used to express the human NK2 receptor.
(§5) C. Assay Protocol using COS or CHO The binding assay of human NK1R expressed in either COS or CHO cells is based on the use of ^125 I-substance P (^125 I-SP, from DU PONT, Boston, Mass.) as a radioactively labeled ligand which competes with unlabeled substance P or any other ligand for binding to the human NK1R. […] In the binding assay, 500 μl of cells were added to a tube containing 20 μl of 1.5 to 0.25 nM of ^125 I-SP and 5 μl of unlabeled substance P or any other test compound in DMSO. The tubes were incubated at 4° C. or at room temperature for 1 hour with gentle shaking. The bound radioactivity was separated from unbound radioactivity by GF/C filter (BRANDEL, Gaithersburg, Md.) which was pre-wetted with 0.1% polyethylenimine. The filter was washed with 3 ml of wash buffer (50 mM Tris pH 7.5, 5 mM MnCl2, 150 mM NaCl) three times and its radioactivity was determined by gamma counter. A similar assay was used for NK2 except ^125 I-NKA was used as the ligand.

For experiment [2], the target named is T2, human NK2 receptor (Homo sapiens, UniProt P21452).
T2 construct: expressed in transfected cells
T2 sequence (P21452 1-398): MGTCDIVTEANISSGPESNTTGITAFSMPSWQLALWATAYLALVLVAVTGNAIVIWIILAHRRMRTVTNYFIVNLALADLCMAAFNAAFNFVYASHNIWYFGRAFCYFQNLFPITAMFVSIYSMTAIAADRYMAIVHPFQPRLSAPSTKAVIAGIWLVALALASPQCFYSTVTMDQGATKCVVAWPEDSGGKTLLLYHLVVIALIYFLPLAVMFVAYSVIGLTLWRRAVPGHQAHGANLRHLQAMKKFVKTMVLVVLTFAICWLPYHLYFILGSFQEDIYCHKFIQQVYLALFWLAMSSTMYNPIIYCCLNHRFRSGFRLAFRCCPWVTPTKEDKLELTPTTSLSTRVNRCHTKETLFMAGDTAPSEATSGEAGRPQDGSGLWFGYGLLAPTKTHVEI
The experiment can be described thus: Binding assay of NK2 receptor expressed in COS or CHO cells, displacement of 125I-NKA (Table 1, hNK2). The following applies: human NK2 receptor, 125I-NKA ligand; read-out: hNK2 (IC50 nM). The procedure: as §1, §2, §3, §4, §5
For orientation: Loss of bound radioactivity is the signal in a displacement assay; it reports binding, not function.

The results in this text go back to US5869489A, “Trypthophan ureas as neurokinnin antagonists” (Merck & Co., Inc., priority 1997, dated 1999).

T1 sequence (P25103 whole entry): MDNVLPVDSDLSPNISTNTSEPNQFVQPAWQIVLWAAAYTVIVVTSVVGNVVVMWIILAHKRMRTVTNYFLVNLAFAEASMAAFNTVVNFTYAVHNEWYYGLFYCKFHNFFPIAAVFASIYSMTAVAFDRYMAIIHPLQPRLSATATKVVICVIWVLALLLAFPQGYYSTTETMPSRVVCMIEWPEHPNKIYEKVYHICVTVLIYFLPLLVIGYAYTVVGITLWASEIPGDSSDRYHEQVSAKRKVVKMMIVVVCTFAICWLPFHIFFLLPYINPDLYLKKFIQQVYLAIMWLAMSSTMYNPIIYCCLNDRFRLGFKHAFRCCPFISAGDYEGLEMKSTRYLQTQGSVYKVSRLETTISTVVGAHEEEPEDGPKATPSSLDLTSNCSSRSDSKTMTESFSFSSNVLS

With `O=C(NCCc1ccccc1)[C@H](Cc1c[nH]c2ccccc12)NC(=O)N1CCC2(CCc3ccccc32)CC1` [Example 19], the IC50 in experiment [1] stood at 200 nM; in experiment [2], 56 nM.

Regarding `CCN(Cc1ccccc1)C(=O)[C@H](Cc1c[nH]c2ccccc12)NC(=O)N1CCC2(CCc3ccccc32)CC1` [Example 20, N-Benzyl-N-ethyl-2-(S)-((spiroindane-1,4'-piperidino)-carbonyl-amino)-3-(3-indolyl)propionamide], the IC50 is 120 nM in experiment [1] and 25 nM in experiment [2].

Take `CC(=O)NC1(c2ccccc2)CCN(C(=O)N[C@@H](Cc2c[nH]c3ccccc23)C(=O)N(C)Cc2ccccc2)CC1` [Example 9, N-Benzyl-N-methyl-2-(S)-(((4-phenyl-4-acetylamino)piperidino)-carbonyl-amino)-3-(3-indolyl)propionamide]: the IC50 is 60 nM in experiment [1] and more than 100 nM in experiment [2].

On to `O=C(Nc1ccccc1)[C@H](Cc1c[nH]c2ccccc12)NC(=O)N1CCC2(CCc3ccccc32)CC1` [Example 14, N-Phenyl-2-(S)-((spiroindane-1,4'-piperidino)-carbonyl-amino)-3-(3-indolyl)propionamide], for which the IC50 in experiment [1] is more than 1000 nM; in experiment [2], 650 nM.

Broadly, the IC50 is the concentration at which inhibition is half-maximal.
